Results on two compounds are retold here after patent US20220401352A1, “A COSMETIC COMPOSITION” (Conopco, Inc., d/b/a UNILEVER, priority 2019, published 2022).

The subject of one data set is interleukin (IL)-6. In words: Human immune cell line THP-1 in vitro assay: IL-6 in supernatant by ELISA after co-treatment with LPS. As to conditions: PMA-differentiated THP1-XBlue cells co-treated with E. coli LPS and composition, 24 hours; percentage to LPS-treated cells (=100%). Format: cell-based. The procedure:
(§1) Human Immune Cell Line THP-1 Invitro Assay The following procedure was used to determine the anti-inflammation efficacy: THP1-XBlue™ (Cat No: thpx-sp, InvivoGen) cells were cultured as suspense in RPMI 1640 medium supplemented with 10% FBS, penicillin (10 U/mL)-streptomycin (10 μg/ML). Cells were differentiated in 24-well plates at the density of 5×10^5 cells/well with 100 nM PMA for 72 hours. Cells were then co-treated with pure E. coli ipopolysaccharides (LPS) and various compositions. After 24 hours, the supernatants were collected and measured for interleukin (IL)-6 as a pro-inflammatory biomarker using enzyme-linked immunosorbent assay (ELISA). IL-6 is a cytokine, or cell-signaling protein, encoded in humans by the IL-6 gene which is both pro-inflammatory and anti-inflammatory and which stimulates the immune response to inflammation. Expression of IL-6 was calculated as the percentage to LPS-treated cells which was designated as 100%. It can be considered as no anti-inflammatory effect if the calculated result is over 100%. Cell viability was calculated as the percentage to non-treated cells which was designated as 100%. P value was analyzed by Student's t-test comparing combination groups and individual compound groups (expression of IL-6).

In another data set the test system is THP1-XBlue cells. In words: Cell viability in the THP-1 in vitro assay. The data set is classed as cell-based, human. As to conditions: PMA-differentiated THP1-XBlue cells co-treated with LPS and composition, 24 hours; percentage to non-treated cells (=100%). The procedure:
as §1, with “The” for “Human Immune Cell Line THP-1 Invitro Assay The”, “IL-6). P value <0.05 indicates synergistic effect.” for “IL-6).”

Structures are written as SMILES. Counter-ions that a name gives are not always drawn.

Turning to `Cc1cc(CC(C)CC(C)(C)C)n(O)c(=O)c1` (stereo not shown) [B, 1-hydroxy-4-methyl-6-(2,4,4-trimethylpentyl)-2(1H) pyridinone monoethanolamine salt], the “expression of IL-6 (%)” value in the data set with interleukin (IL)-6 came out at 76.4%. For the same compound, the “Cell Viability (%)” value in the data set on THP1-XBlue cells is 81%.
Turning to `OCc1ccccc1O[C@@H]1O[C@H](CO)[C@@H](O)[C@H](O)[C@H]1O` [C, salicin], the “expression of IL-6 (%)” value in the data set on interleukin (IL)-6 was 65.0%. In addition, in the data set on THP1-XBlue cells, the “Cell Viability (%)” value worked out at 86%.
